Results as given in the supplement of paper PMC10307832.

Tests used:
Assay in all cases: relative viability (nuclei count vs DMSO), 5 days (fraction); higher = more cells survive
[1] = compound: CN[C@@H]1C[C@H]2O[C@@](C)([C@@H]1OC)n1c3ccccc3c3c4c(c5c6ccccc6n2c5c31)C(=O)NC4 [Staurosporine] + CC1(C)CCC(c2ccc(Cl)cc2)=C(CN2CCN(c3ccc(C(=O)NS(=O)(=O)c4ccc(N[C@H](CCN5CCOCC5)CSc5ccccc5)c(S(=O)(=O)C(F)(F)F)c4)cc3)CC2)C1 [Navitoclax] (partner 0.5 µM)
Method in brief: (§1)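 Relative viability divides the nuclei count in treated wells by that in vehicle wells. Lung cancer cell lines were seeded in 1536-well plates, dosed by pin tool the next day, and fixed and stained after 5 days in one step with final 0.05% Triton X-100, 1% formaldehyde and 1 ug/ml Hoechst. Dosing was a single drug or a fixed anchor-drug dose plus five library-drug doses (not always all listed) in √10 steps, and values are medians of duplicate plates imaged at 4×.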

5-Fluorouracil + AZD7762 = compound: O=c1[nH]cc(F)c(=O)[nH]1 [5-Fluorouracil] + NC(=O)Nc1cc(-c2cccc(F)c2)sc1C(=O)N[C@H]1CCCNC1 [AZD7762] (partner 0.2 µM)
Method in brief: as §1

Sulindac + Dasatinib = compound: CC1=C(CC(=O)O)c2cc(F)ccc2/C1=C\c1ccc([S+](C)[O-])cc1 [Sulindac] + Cc1nc(Nc2ncc(C(=O)Nc3c(C)cccc3Cl)s2)cc(N2CCN(CCO)CC2)n1 [Dasatinib] (partner 0.075 µM)
Method in brief: as §1

[2] = compound: CN[C@@H]1C[C@H]2O[C@@](C)([C@@H]1OC)n1c3ccccc3c3c4c(c5c6ccccc6n2c5c31)C(=O)NC4 [Staurosporine] + CC(=O)c1c(C)c2cnc(Nc3ccc(N4CCNCC4)cn3)nc2n(C2CCCC2)c1=O [Palbociclib] (partner 0.5 µM)
Method in brief: as §1

| Cell Line | relative viability ([1]; first compound 0.005 µM) | relative viability ([1]; first compound 0.01581 µM) | relative viability ([1]; first compound 0.05 µM) | relative viability ([1]; first compound 0.1581 µM) | relative viability ([1]; first compound 0.5 µM) | relative viability (5-Fluorouracil + AZD7762; first compound 0.02 µM) | relative viability (5-Fluorouracil + AZD7762; first compound 0.2 µM) | relative viability (5-Fluorouracil + AZD7762; first compound 0.6325 µM) | relative viability (5-Fluorouracil + AZD7762; first compound 2 µM) | relative viability (Sulindac + Dasatinib; first compound 0.08 µM) | relative viability (Sulindac + Dasatinib; first compound 0.253 µM) | relative viability (Sulindac + Dasatinib; first compound 2.53 µM) | relative viability (Sulindac + Dasatinib; first compound 8 µM) | relative viability ([2]; first compound 0.005 µM) | relative viability ([2]; first compound 0.01581 µM) | relative viability ([2]; first compound 0.05 µM) | relative viability ([2]; first compound 0.1581 µM) | relative viability ([2]; first compound 0.5 µM) | relative viability (Sulindac + Dasatinib; first compound 0.8 µM) |
| --- | --- | --- | --- | --- | --- | --- | --- | --- | --- | --- | --- | --- | --- | --- | --- | --- | --- | --- | --- |
| EKVX | 0.306 | 0.222 | 0.254 | 0.168 | 0.112 | 0.322 | 0.157 | 0.145 | 0.157 | 0.414 | 0.524 | 0.479 | 0.476 | 0.266 | 0.143 | 0.152 | 0.168 | 0.0893 |  |
| EMC-BAC-2 | 1.1 | 0.777 | 0.172 | 0.153 | 0.127 | 1.14 | 1.22 | 1.11 | 1.01 | 0.269 | 0.323 | 0.314 | 0.367 | 0.383 | 0.242 | 0.213 | 0.228 | 0.207 | 0.378 |
| EPLC-272H | 1.34 | 0.463 | 0.409 | 0.163 | 0.19 | 0.243 | 0.122 | 0.109 | 0.102 | 0.424 | 0.377 | 0.358 | 0.332 | 0.3 | 0.275 | 0.193 | 0.157 | 0.0846 |  |
| H3255 | 0.172 | 0.102 | 0.112 | 0.0846 | 0.0541 | 0.98 | 0.949 | 0.696 | 0.567 | 0.407 | 0.319 | 0.389 | 0.399 | 0.275 | 0.24 | 0.24 | 0.181 | 0.178 | 0.487 |
| HARA |  | 0.538 | 0.37 | 0.157 | 0.161 | 0.411 | 0.32 | 0.4 | 0.211 | 0.248 | 0.25 | 0.327 | 0.26 | 0.268 | 0.236 | 0.206 | 0.177 | 0.118 | 0.277 |
| HCC-15 | 0.677 |  | 0.392 | 0.282 | 0.183 | 1.28 | 1.2 | 0.448 | 0.39 | 0.674 | 0.614 | 0.573 | 0.656 | 0.527 |  | 0.503 | 0.275 | 0.229 | 0.544 |
| HCC-44 | 0.867 | 0.28 | 0.215 | 0.185 | 0.13 | 1.01 | 0.925 | 0.733 | 0.466 |  |  |  |  |  |  | 0.768 | 0.53 | 0.41 |  |
| HCC-78 | 0.711 | 0.563 | 0.553 | 0.358 | 0.206 | 0.562 | 0.503 | 0.239 | 0.306 | 0.552 | 0.313 | 0.587 | 0.401 | 0.502 | 0.469 | 0.462 | 0.472 | 0.464 | 0.345 |
| HCC-366 | 1.03 |  | 0.5 | 0.0585 | 0.0142 | 0.354 | 0.308 | 0.119 | 0.0755 | 0.715 | 0.699 | 0.587 | 0.622 | 0.297 |  | 0.113 | 0.0357 | 0.0204 | 0.578 |
